According to article PMC8837781, “Suppression of tumor metastasis by a RECK-activating small molecule” (Scientific Reports, 2022):

Legend:
[1] = target: T1, HDAC1 (Homo sapiens, UniProt Q13547); test: biochemical; parameters: HDAC inhibition assay, IC50; conditions: read-out: HDAC inhibition (HDAC1)
[2] = target: T2, HDAC3 (Homo sapiens, UniProt O15379); test: biochemical; parameters: HDAC inhibition assay, IC50; conditions: read-out: HDAC inhibition (HDAC3)
[3] = target: T1, HDAC1; test: HDAC1 inhibition assay (details not given); assay type: biochemical
[4] = target: T2, HDAC3; test: HDAC3 inhibition assay (details not given); assay type: biochemical

T1 sequence (Q13547 whole entry): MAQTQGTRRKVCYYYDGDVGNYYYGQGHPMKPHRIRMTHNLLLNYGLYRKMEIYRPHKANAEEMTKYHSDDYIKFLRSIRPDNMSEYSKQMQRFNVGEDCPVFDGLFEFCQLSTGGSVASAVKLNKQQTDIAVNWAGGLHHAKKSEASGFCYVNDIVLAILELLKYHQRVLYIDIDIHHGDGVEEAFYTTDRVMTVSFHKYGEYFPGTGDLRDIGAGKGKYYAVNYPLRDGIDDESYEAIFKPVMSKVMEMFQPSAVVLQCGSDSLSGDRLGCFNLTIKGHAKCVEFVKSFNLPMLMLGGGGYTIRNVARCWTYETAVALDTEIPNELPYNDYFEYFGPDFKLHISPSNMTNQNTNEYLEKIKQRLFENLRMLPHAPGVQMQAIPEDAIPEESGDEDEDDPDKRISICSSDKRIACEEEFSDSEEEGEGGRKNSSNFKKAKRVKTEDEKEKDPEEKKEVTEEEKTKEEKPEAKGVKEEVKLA
T2 sequence (O15379 whole entry): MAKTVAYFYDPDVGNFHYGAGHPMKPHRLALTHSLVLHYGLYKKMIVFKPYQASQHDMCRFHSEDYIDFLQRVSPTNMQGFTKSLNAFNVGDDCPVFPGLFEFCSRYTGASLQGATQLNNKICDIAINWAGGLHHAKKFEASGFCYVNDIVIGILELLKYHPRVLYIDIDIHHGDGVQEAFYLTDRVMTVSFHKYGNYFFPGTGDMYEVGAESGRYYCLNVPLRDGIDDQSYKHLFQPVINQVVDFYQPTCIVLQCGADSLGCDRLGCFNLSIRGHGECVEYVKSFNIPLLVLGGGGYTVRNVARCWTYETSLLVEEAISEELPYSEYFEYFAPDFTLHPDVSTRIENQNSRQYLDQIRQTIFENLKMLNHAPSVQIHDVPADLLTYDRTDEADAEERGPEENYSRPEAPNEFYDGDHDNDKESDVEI

IC50 [1] [µM] | IC50 [2] [µM] | IC50 [3] [µM] | IC50 [4] [µM] | Compound
> 100 | > 100 |  |  | Cc1ccc(NC(=O)c2ccccc2N)cc1 [NTAB]
8 | 5 |  |  | Nc1ccccc1NC(=O)c1ccccc1 [NAPB]
3 | 3 |  |  | Cc1ccc(C(=O)Nc2ccccc2O)cc1 [NHPMB]
> 100 | > 100 |  |  | Cc1ccc(C(=O)Nc2ccccc2)cc1 [NPMB]
 |  | ~5 | ~10 | Cc1ccc(C(=O)Nc2ccccc2N)cc1 [#638, DSK638]
